Test [1] deals with ZIKV. Kind of test: Antiviral activity of Hc-CATH against ZIKV in vitro (peptide present during and after infection). Type of test: cell-based, ZIKV strain PRVABC59. The method, then: Figure 1 Hc-CATH inhibits ZIKV infection in vitro. A, schematic diagram of B–H. B–H, protective effect of Hc-CATH on ZIKV infection in vitro. Vero cells were seeded in 24-well plates (5 × 10^4 cells/well). Cells were infected with ZIKV (MOI = 1), and Hc-CATH (1.25, 2.5, and 5 μM), AC5 (2.5 and 5 μM), LL-37 (2.5 μM), or same volume of PBS (peptide solvent) was added and incubated at 37 °C for 2 h. Then the cells were washed with PBS and transferred with fresh DMEM containing 2% FBS and the same concentration of peptides. After culture at 37 °C for 48 h, image of ZIKV-caused cytopathic effect was taken (B, the scale bar represents 200 μm), the percentage of ZIKV-caused cytopathic effect was quantified by CCK-8 (C), intracellular ZIKV RNA (D), NS3 protein (E, upper panel: immunoblots, lower panel: ratios analyzed by ImageJ), E protein (F, the scale bar represents 50 μm), and extracellular ZIKV titer (G and H) was tested by qPCR, Western blot, immunofluorescence staining, and plaque-forming assay, respectively. The raw data files used in the creation of G are presented in Fig. S3. ∗p < 0.05, ∗∗p < 0.01, ∗∗∗p < 0.001, ns, not significant.
Vero cells were seeded in 24-well plates (5 × 10^4 cells/well). After cells were adhered to plates, cells were incubated with ZIKV (multiplicity of infection [MOI] = 1) in the presence of noncytotoxic concentration of Hc-CATH, AC5 (positive control), LL-37 (positive control), or PBS (solvent of peptide). After incubation at 37 °C for 2 h, the culture media were removed, cells were washed with PBS and transferred with fresh culture media containing 2% FBS, and Hc-CATH, AC5, LL-37, or PBS was supplemented to each well. After incubation at 37 °C for 48 h, cytopathic effect was observed by microscopy, and Cell Counting Kit-8 was applied to determine the percent of cytopathic effect. The percent of cytopathic effect was calculated as (Asham –Atreatment)/Asham × 100 (where Asham represents the absorbance of uninfected cells, Atreatment represents the absorbance of PBS- or peptide-treated cells post ZIKV infection). The intracellular ZIKV RNA, NS3 protein, E protein, and extracellular ZIKV titer were tested by qPCR, WB, IF, and plaque-forming assay, respectively ([28]).

Test [2] has as its system TIM-1. Nature of the test: TIM-1 level in Vero cells (Western blot). To be noted: 6, 12, and 24 h post Hc-CATH addition. It counts as cell-based, Chlorocebus aethiops. The method, then: Figure 3 Hc-CATH downregulates AXL in Vero cell.A, schematic diagram of B and C. B, Vero cells were seeded in 24-well plates (5 × 10^4 cells/well) and cultured in DMEM containing 2% FBS. Hc-CATH (1.25, 2.5, and 5 μM), AC5 (2.5 μM), LL-37 (2.5 μM), or same volume of PBS (peptide solvent) was added to cells. After culture at 37 °C for 6, 12, and 24 h, the levels of ZIKV entry factors, including AXL, TYRO3, and TIM-1, were tested by Western blot, respectively. C, Vero cells were seeded in 8-well cover slip chambers (5 × 10^4 cells/well) and cultured in DMEM containing 2% FBS. Hc-CATH (1.25, 2.5, and 5 μM), AC5 (2.5 μM), LL-37 (2.5 μM), or same volume of PBS (peptide solvent) was added to cells. After culture at 37 °C for 24 h, the level of AXL was tested by immunofluorescence staining. The scale bar represents 50 μm. D, schematic diagram of E. E, Vero cells were seeded in 24-well plates (5 × 10^4 cells/well) and cultured in DMEM containing 2% FBS. Hc-CATH (1.25, 2.5, and 5 μM), AC5 (2.5 μM), LL-37 (2.5 μM), or same volume of PBS (peptide solvent) was added to cells and incubated at 37 °C for 2 h. […] Ratio of AXL to β-actin was analyzed by ImageJ.
Vero cells were incubated with Hc-CATH (1.25, 2.5, and 5 μM), AC5 (2.5 μM), LL-37 (2.5 μM), or PBS (solvent of peptide). […] The levels of ZIKV entry factors, including AXL, TYRO3, and TIM-1, were detected by WB analysis. […]
A general note: A western blot detects proteins with antibodies after separation by electrophoresis.

Test [3] deals with ZIKV. Nature of the test: ZIKV replication stage, Vero cells (peptide added after infection). It counts as cell-based, ZIKV strain PRVABC59. To be noted: 2.5 μM added after 2 h ZIKV infection (MOI = 1), 48 h, relative to PBS. As for the experimental part:
B–I, Vero (B–G), A549 (H), or U251 (I) cells were incubated with ZIKV (MOI = 1) at 37 °C for 2 h, washed with PBS, and transferred with fresh DMEM containing 2% FBS and Hc-CATH (2.5 μM), AC5 (2.5 μM), LL-37 (2.5 μM), or PBS (solvent of peptide). After culture at 37 °C for 48 h, intracellular ZIKV RNA (B), NS3 protein (C, D, H, and I), E protein level (E, the scale bar represents 50 μm), and extracellular ZIKV titer (F and G) were detected by qPCR, Western blot, immunofluorescence staining, and plaque-forming assay, respectively.
Vero cells were incubated with ZIKV (MOI = 1) at 37 °C for 2 h, washed three times with PBS, and transferred with fresh DMEM containing 2% FBS and Hc-CATH (2.5 μM), AC5 (2.5 μM), LL-37 (2.5 μM), or PBS. After culture at 37 °C for 48 h, intracellular ZIKV RNA, NS3 protein, E protein, and extracellular ZIKV titer were detected by qPCR, WB, IF, and plaque-forming assay, respectively. The effect of Hc-CATH on ZIKV replication stage was further tested in A549 and U251 cells under the same condition, and intracellular ZIKV NS3 protein was detected by WB.

On the set-up of test [4]: method as in PMID 26013823. To be noted: cited from earlier work.

As for “KFFKRLLKSVRRAVKKFRKKPRLIGLSTLL [Hc-CATH, cathelicidin antimicrobial peptide identified from the sea snake Hydrophis cyanocinctus]”, in test [1] (5 μM, Vero cells, ZIKV MOI = 1, 48 h, Western blot, ImageJ), the “reduction of NS3 protein” value is ~67.4%. Moreover, the “reduction of extracellular ZIKV particles” value in test [1] (5 μM, Vero cells, ZIKV MOI = 1, 48 h, plaque-forming assay) is ~71.6%. In addition, the “reduction of intracellular ZIKV RNA” value in test [1] (5 μM, Vero cells, ZIKV MOI = 1, 48 h, qPCR) was ~52.7%. Also, the “reduction of ZIKV-caused cytopathic effect” value in test [1] (5 μM, Vero cells, ZIKV MOI = 1, peptide during 2 h infection and 48 h culture, CCK-8) is “about 70.3%”. The “anti-ZIKV efficacy in vitro compared with positive peptides” value in test [1] (Vero cells (Fig. 1)) was “weaker than that of AC5 and LL-37”. In addition, the “level of TIM-1 in Vero cells” value in test [2] is “did not obviously influence”. Also, the “intracellular ZIKV RNA, NS3 protein, E protein, extracellular ZIKV titer, peptide maintained after infection” value in test [3] was “did not reduce”. For the same sequence, the anti-inflammatory activity result in test [4] is reported as “potent anti-inflammatory activity”.

The record behind these values is paper PMC9530963, “A cathelicidin antimicrobial peptide from Hydrophis cyanocinctus inhibits Zika virus infection by downregulating expression of a viral entry factor” (The Journal of Biological Chemistry, 2022).
